Measurements published in patent publication US11541067B2, “HMO compositions and methods for reducing detrimental proteolytic metabolites” (Glycom A/S, priority 2017, dated 2023).

Test system: microbial metabolites
Assay: M-SHIME (M-TripleSHIME) in vitro gastrointestinal model: bacterial metabolite analysis
Assay type: cell-based, human
Details: proximal (PC) and distal (DC) colon reactor; FIG. 1 in mg/l, means of three weekly samples
Description: The impact of the HMOs on microbiota and bacterial metabolites was investigated in the M-SHIME® (M-TripleSHlME®) in vitro gastrointestinal model (Prodigest). The typical reactor setup of the M-TripleSHIME® consisted of a succession of four reactors simulating the different parts of the human gastrointestinal tract. The first two reactors were of the fill-and-draw principle to simulate different steps in food uptake and digestion, with peristaltic pumps adding a defined amount of SHIME feed (140 mL 3×/day) and pancreatic and bile liquid (60 ml 3×/day), respectively, to the stomach and small intestine compartment and emptying the respective reactors after specified intervals. The last two compartments were continuously stirred reactors with constant volume and pH control. […]
The M-TripleSHIME® was run in four stages: • 1. […] The baseline microbial community composition and activity in the different reactors was determined by analysis of samples and was used as a reference. • 3. […]
Sample of the liquids in each reactor were collected regularly (three times in a week, on day 1, day 3 and day 5) and were analysed for microbial metabolites and the composition of the resident microbial community. In particular, the bifidobacteria composition was analysed using ITS profiling.

Structure (SMILES): CC(=O)N[C@H]1[C@H](O[C@H]2[C@@H](O)[C@@H](CO)O[C@@H](O[C@H]3[C@H](O)[C@@H](O)C(O)O[C@@H]3CO)[C@@H]2O)O[C@H](CO)[C@@H](O[C@@H]2O[C@H](CO)[C@H](O)[C@H](O)[C@H]2O)[C@@H]1O (mixture of isomers) [LNnT, lacto-N-neotetraose]
- ammonia production compared with the effect of 2′-FL (FIG. 1): similar
- branched SOFA production compared with the effect of 2′-FL (FIG. 1): similar
